Results on one molecule are retold here after patent US20200260697A1, “METHODS OF MOUSE CLINICAL TRIAL” (CROWN BIOSCIENCE, INC. (TAICANG), priority 2016, published 2020).

What all share (assay type): in vivo, mouse
For assay [1], the system named is 42 PDXs including 13 esophageal cancers (ES), 21 gastric cancers (GA) and 8 lung cancers(LU). Put plainly: Survival analysis (PFS, OS) of the cisplatin MCT dataset, additive frailty model and proportional hazard Cox model. Conditions: cisplatin versus vehicle. From the text:
Survival analysis are the most important endpoints of human clinical trials and can also be potentially adapted to MCT by first defining “clinical endpoint” of PFS (progress-free survival) and OS (overall survival) in preclinical setting. By the RECIST standard (Therasse P et al., J Natl Cancer Inst (2000) 92(3):205-16), we define PFS as the time until the starting tumor volume increases by 73%, and define OS as the time until the starting tumor volume triples, at which the tumor volume is usually between 300-600 mm^3, depending on initial tumor volumes. As we have shown in examples above, tumors already start exponential growth before it reaches 600 mm^3. The definitions are more of a custom and can certainly be adjusted otherwise. For example, Gao et al defined PFS as the time until tumor volume doubles (Gao H et al., Nat Med (2015) 21(11):1318-25). We can also define OS as the time until the starting tumor volume quadruples and so on.
In human oncology trails, survival time of patients is usually assumed to be independent of each other. […] Mice have correlated survival time both within a PDX and between treatments (FIGS. 10A-B). There is heterogeneity on hazard and drug response for PDXs. We used an additive frailty model to fit the survival data in MCTs (Rondeau V et al., J Statistical Software (2012) 47(4):1-28; Hanagal D D, Statistical Methods in Medical Research (2015) 24(6):936-36). In this model, the hazard function for the j-th mouse of the i-th PDX is
hij(t)=h0(t)exp(ui+(w+vi)Tij+β^TXi)
where h0(t) is the baseline hazard function. Parameter ui is the random effect (the first frailty term) associated with the i-th PDX that captures its characteristic growth, thus survival behavior, without drug treatment. Parameter vi is the random effect (the second frailty term) associated the i-th PDX that depicts its drug response deviating from the mean drug effect w of all PDXs. Tij is the treatment variable and it equals 0 for the vehicle treatment and 1 for the drug treatment; Xi is a vector for the PDX's covariates, e.g., cancer type and gene expression; β^T is the parameter vector quantifying the fixed effects of the covariates. The two random effects ui and vi assume a bivariate normal distribution with zero means, variance σ^2 and τ^2, and covariance ρστ. If the two random effects ui and vi are removed, the model reduces to the proportional hazard Cox model.
We used the cisplatin dataset in the previous example to illustrate modeling by the additive frailty model, using the R package frailtypack (Rondeau V et al., J Statistical Software (2012) 47(4):1-28). For simplicity, we used treatment as the sole covariate. By Equation 10, we observed that both frailty terms are significant larger than 0 (Wald test p-value<0.05) for PFS and OS analyses. […]

The test system is the same in assay [2]. Description: MCT evaluating cisplatin response on 42 PDXs, tumor volume analysed by linear mixed model (Equation 7) and AUC ratio. The protocol: In a MCT, tumor volume is measured at multiple time points for each mouse, and these tumor volumes are often correlated, as in a typical longitudinal study. As shown above, almost all growth curves under vehicle treatment can be modeled by the linear Equation 2, and under drug treatment, about 80% of the growth curves are linear or close to linear. If we introduce a quadratic term on the day (x^2), more than 90% of the growth curves can be fitted with R^2>0.7, and 97% with R^2>0.4. With such strong linearity, the linear mixed models (LMM) is a proper and powerful tool to analyze the clustered longitudinal data from MCTs (West B T et al., “Linear Mixed Models: A Practical Guide Using Statistical Software, Second Edition”, Crc Press (2014)). Specifically, a 3-level model is appropriate, in which PDX and mouse are random factors, and covariates at the PDX-level and mouse-level can be included (FIG. 9A). We used an MCT to illustrate the application of LMMs for drug response evaluation and biomarker discovery. The MCT evaluated cisplatin response (4 mg/kg, daily dosing for 3 weeks) on 42 PDXs including 13 esophageal cancers (ES), 21 gastric cancers (GA) and 8 lung cancers(LU), each PDX had 5-9 mice (FIGS. 9B-C). A general model was specified for tumor volume, in log scale, at day t for mouse i within PDX j as follows: [formula] The model used vehicle in ES as the reference. There were […], β0 for the intercept, β1 for the time slope, β2 and β3 quantify the growth rate difference of GA and LU with respect to ES, β4 measures cisplatin effect, β5 and β6 check if GA and LU respond differently to cisplatin. The model also had 5 random effects, including the residual ϵtij. In a MCT, we can view the cohort of PDXs as random samples from a PDX or patient population, therefore, they have different growth rates, which is modeled by the random effect u1j associated with the time slope. Similarly, we model the growth difference for mice within a PDX by the random effect u1i|j. Mice and PDX may also have different starting tumor volumes, which are modeled by the two random effects on intercept: u0j and u0i|j. Therefore, our LMM captures both PDX-level and mouse-level growth heterogeneity under vehicle and drug treatments. […] From the model, we can get fitted cancer specific growth curves, as well as PDX and mouse specific growth curves. On average, cisplatin reduces tumor growth rate by about 38%.

The next assay relates to gastric cancer PDXs. Put plainly: LMM (Equation 8) of the cisplatin dataset with ERCC1 expression as covariate. Conditions: LMM Equation 8, gastric cancer PDXs. The source says: The LMM can readily incorporate PDX-level genomic covariates, e.g. gene expression and mutation, for biomarker analysis. We used the same dataset to examine if ERCC1 expression is related to cisplatin response in gastric cancer by fitting the following LMM:
lnVtij=β0+β1×Dayt+β2×Dayt×ERCC1j+β3×Dayt×Treatmentij+β4×Dayt×ERCC1j×Treatmentij+u0j+u1j×Dayt+u(0i|j)+u(1i|j)×Dayt+ϵtij (8)
In this model, β2 evaluates ERCC1 expression as a prognostic biomarker since it is for both vehicle and cisplatin groups. […] The coefficient β4 examines ERCC1 expression as a predictive biomarker for cisplatin. The fitted value of β4 is 0.0136, close to that of β2. Therefore, high ERCC1 expression acts adversely to cisplatin treatment (FIG. 9E). The parameter β3 quantifies cisplatin treatment and is estimated to be −0.0879. Results from our LMM may have clinical implications.

For the molecule `N.N.[Cl][Pt][Cl]` [cisplatin], the “hazard ratio (HR) for OS” value in assay [1] (additive frailty model, OS = time until starting tumor volume triples) is 0.21 (95% CI: 0.15-0.31). Besides, the “hazard ratio (HR) for PFS” value in assay [1] (additive frailty model, PFS = time until starting tumor volume increases by 73%) was 0.40 (95% CI: 0.31-0.50). In addition, in assay [1] (proportional hazard Cox model), the “OS HR” value is 0.36 (95% CI: 0.28-0.46) and the “PFS HR” value is listed as 0.48 (95% CI: 0.40-0.58). For the same molecule, the “response across cancer types” value in assay [2] (ES, GA and LU PDXs, p-values for β5 and β6 >0.05) is on record as “comparable responses on the 3 cancer types”. In addition, the “β4 (Day × Treatment) estimate, cisplatin effect on growth rate of ln tumor volume” value in assay [2] (LMM Equation 7, vehicle in ES as reference, REML estimate, second figure not defined, p-value 1.2E−19) was −0.0282(0.0031). Besides, in assay [2] (LMM Equation 7, checks if GA responds differently to cisplatin than ES, REML estimate, second figure not defined, p-value 0.35), the “β5 (Day × CancerTypeGA × Treatment) estimate” value is given as 0.0037(0.0039). The “β6 (Day × CancerTypeLU × Treatment) estimate” value in assay [2] (LMM Equation 7, checks if LU responds differently to cisplatin than ES, REML estimate, second figure not defined, p-value 0.84) is −0.0011(0.0052). Also, the “reduction of tumor growth rate, on average (LMM)” value in assay [2] (cisplatin 4 mg/kg, daily dosing for 3 weeks, 42 PDXs, 5-9 mice each, LMM Equation 7) was “about 38%”. Also, the “reduction of tumor growth rate by the AUC ratio method” value in assay [2] (cisplatin 4 mg/kg, daily dosing for 3 weeks, 42 PDXs, AUC ratio method) is listed as 36%. In addition, in the assay with gastric cancer PDXs (ERCC1 expression as covariate), the “β3 (Day × Treatment), quantifies cisplatin treatment” value was −0.0879. In addition, the “β4 (Day × ERCC1 × Treatment), ERCC1 expression as predictive biomarker for cisplatin” value with gastric cancer PDXs (positive value: high ERCC1 expression acts adversely to cisplatin treatment) was 0.0136.
